The results in this text go back to ChEMBL document CHEMBL1122818, “Synthesis and biological activity of certain 6-substituted and 2,6-disubstituted 2'-deoxytubercidins prepared via the stereospecific sodium salt glycosylation procedure” (J Med Chem, 1985).

For series [1], the system named is Vaccinia virus. Description: In vitro antiviral activity was tested against, vaccinia virus (VV). Conditions: Orthopoxvirus vaccinia; read-out: ED50 (the source's name). It counts as functional.
Series [2] relates to Human respirovirus 3. Description: In vitro antiviral activity was tested against, parainfluenza type 3 (Para 3) virus. In kind it is functional. The conditions noted are these: read-out: ED50 (the source's name).
Series [3] has as its system P388. Description: In vitro inhibitory effect was tested for cytostatic activity on the growth of lymphoid neoplasm P388 leukemic cell lines. It counts as functional. Conditions: Mus musculus, read-out: ID50 (the source's name).
The test system of series [4] is Measles morbillivirus. Description: In vitro antiviral activity was tested against, measles virus. It counts as functional. Conditions: read-out: ED50 (the source's name).
The test system of series [5] is L1210. Description: In vitro inhibitory effect was tested for cytostatic activity on the growth of murine leukemic L1210 cell lines. Conditions: Mus musculus, read-out: ID50 (the source's name). It counts as functional.
Series [6] deals with Human alphaherpesvirus 2. The series can be described thus: In vitro antiviral activity was tested against, herpes simplex type 2 virus (HSV-2). It counts as functional. The conditions noted are these: read-out: ED50 (the source's name).
The nature of series [7]: Toxic level was evaluated. In kind it is ADME.
The test system of series [8] is Vaccinia virus. Description: In vitro antiviral activity was tested against, vaccinia virus (VV); b=Too insoluble to test. It counts as functional, organism-based. Conditions: Orthopoxvirus vaccinia.
The subject of series [9] is Measles morbillivirus. The series can be described thus: In vitro antiviral activity was tested against, measles virus; b=Too insoluble to test. In kind it is functional, organism-based.
Series [10] deals with Human respirovirus 3. Description: In vitro antiviral activity was tested against, parainfluenza type 3 (Para 3) virus; b=Too insoluble to test. It counts as functional, organism-based.
Series [11] in a line: Toxic level was evaluated; b=Too insoluble to test. In kind it is ADME.
Series [12] concerns Human alphaherpesvirus 2. Description: In vitro antiviral activity was tested against, herpes simplex type 2 virus (HSV-2); b=Too insoluble to test. It counts as functional, organism-based.
Series [13] deals with Human alphaherpesvirus 2. Description: In vitro antiviral activity was tested against herpes simplex type 2 virus (HSV-2). It counts as functional. The conditions noted are these: read-out: ED50 (the source's name).
In series [14] the test system is Vaccinia virus. The series can be described thus: In vitro antiviral activity was tested against vaccinia virus (VV). It counts as functional. The conditions noted are these: Orthopoxvirus vaccinia; read-out: ED50 (the source's name).
The subject of series [15] is Human respirovirus 3. The series can be described thus: In vitro antiviral activity was tested against, parainfluenza type 3 (Para 3) virus. Conditions: read-out: ED50 (the source's name).
For series [16], the system named is Measles morbillivirus. The series can be described thus: In vitro antiviral activity was tested against measles virus. In kind it is functional. The conditions noted are these: read-out: ED50 (the source's name).
Series [17] in a line: Toxic level was evaluated; None. In kind it is ADME.

Regarding `Nc1ncnc2c1ccn2[C@H]1C[C@H](O)[C@@H](CO)O1` [2'-Deoxytubercidin], the EC50 in [1] stood at 160 µM; in [2], 660 µM; in series [4], 210 µM; in series [6], 50 µM. Also, the IC50 in [3] came out at 49 µM; in series [5], 80 µM. This compound also displayed a Toxic level in series [7] of 1.6 mM.

Regarding `OC[C@H]1O[C@@H](n2ccc3cncnc32)C[C@@H]1O`, the EC50 in series [1] was above 5000 µM; in series [2], above 5000 µM; in series [4] it was 250 µM; in series [6] it was 1400 µM. For the same compound, the Toxic level in series [7] turned out to be 5 mM.

Take `CSc1nc(N)c2cc(C)n([C@H]3C[C@H](O)[C@@H](CO)O3)c2n1`: the EC50 in [1] is 1000 µM; in series [2] it was above 5000 µM; in series [4], 250 µM; in series [6] it was 1300 µM. The compound also registered a Toxic level in series [7] of 1.6 mM.

For the compound `CSc1ncc2cc(C)n([C@H]3C[C@H](O)[C@@H](CO)O3)c2n1`, the EC50 amounted to 840 µM in series [1], 1100 µM in series [2], 95 µM in series [4] and 2900 µM in series [6]. This compound also came in with a Toxic level in series [7] above 5 mM.

As to `Cc1cc2c(N)ncnc2n1[C@H]1C[C@H](O)[C@@H](CO)O1`, the EC50 in series [1] came out at 1000 µM; in [2], 500 µM; in series [4], 500 µM; in series [6], 2100 µM. Further, in [7], the Toxic level is 5 mM.

On to `CSc1nc(Cl)c2cc(C)n([C@H]3C[C@H](O)[C@@H](CO)O3)c2n1`, for which the ED50 entry in series [8], in series [9], in series [10] and in [12] was “Too insoluble” each time. In series [11], the Toxic level result is reported as “Too insoluble”.

Regarding `Cc1nc(N)c2ccn([C@H]3C[C@H](O)[C@@H](CO)O3)c2n1`, the EC50 in series [1] is 3100 µM; in series [2], above 5000 µM; in series [4] it was 920 µM; in series [6] it was 1600 µM. This compound also came in with a Toxic level in series [7] of 1.6 mM.

Turning to `Nc1nc(Cl)nc2c1ccn2[C@H]1C[C@H](O)[C@@H](CO)O1`, the EC50 is 1100 µM in [1], above 5000 µM in series [2], above 5000 µM in series [4] and above 5000 µM in [6]. This compound also yielded a Toxic level in series [7] of 0.5 mM.

In the case of `Nc1ncnc2c1cc(Cl)n2[C@H]1C[C@H](O)[C@@H](CO)O1`, the EC50 in series [1] is 330 µM; in series [2], 1600 µM; in series [4], 360 µM; in series [6], 1100 µM. Besides, the Toxic level in series [7] came to 1.6 mM.

Regarding `Cc1cc2cncnc2n1[C@H]1C[C@H](O)[C@@H](CO)O1`, the EC50 turned out to be 74 µM in [13], 1 mM in [14], 1.1 mM in series [15] and 300 µM in series [16]. The compound further displayed a Toxic level in series [7] of 5 mM.

For `Nc1nc(Cl)nc2c1ncn2[C@H]1C[C@H](O)[C@@H](CO)O1` [CLADRIBINE], the EC50 in [1] was 5 µM; in series [2], above 500 µM; in series [4] it was above 500 µM; in [6], 5 µM. In addition, the IC50 was 0.032 µM in series [3] and 0.026 µM in series [5]. In [7], the Toxic level came out at 0.005 mM.

For the compound `CSc1nc(N)c2cc(Cl)n([C@H]3C[C@H](O)[C@@H](CO)O3)c2n1`, the EC50 in series [1] is above 500 µM; in series [2], 340 µM; in [4], 100 µM; in series [6] it was 580 µM. In addition, the Toxic level in series [7] came to 0.5 mM.

On to `Cc1nc(N)c2cc(Cl)n([C@H]3C[C@H](O)[C@@H](CO)O3)c2n1`, for which the EC50 is 840 µM in [1], above 1600 µM in [2], 360 µM in series [4] and 500 µM in series [6]. This compound had a Toxic level in [7] of 0.5 mM.

`OC[C@H]1O[C@@H](n2ccc3c(S)ncnc32)C[C@@H]1O`: the EC50 was 1100 µM in series [1], above 5000 µM in series [2], 27 µM in series [4] and 160 µM in [6]. This compound also gave a Toxic level in series [7] of 5 mM.

For the compound `NC(=O)c1ncn([C@@H]2O[C@H](CO)[C@@H](O)[C@H]2O)n1` [RIBAVIRIN], the EC50 in series [1] was determined as 85 µM; in series [2], 160 µM; in series [4], 30 µM; in [6], 190 µM. Further, the Toxic level result in series [17] is reported as “Non-toxic”.

For `OC[C@H]1O[C@@H](n2ccc3c(Cl)ncnc32)C[C@@H]1O`, the EC50 was above 5000 µM in series [1], 960 µM in [2], 89 µM in [4] and 650 µM in series [6]. For the same compound, the IC50 came to 73 µM in [3] and 59 µM in [5]. In addition, the Toxic level in [7] was determined as 1.6 mM.
